Experimental data taken from patent US20240066119A1, “METHODS AND PLATFORMS FOR ELICITING AN IMMUNE RESPONSE IN THE TREATMENT OF CANCER AND COMPOSITIONS AND VACCINES RELATING THERETO” (University of Maryland, College Park, priority 2021, published 2024).

Test system: lymphocyte egress from lymphoid tissues
Assay: Inhibition of lymphocyte trafficking with FTY720
Type: in vivo, C57BL6 mice
Settings: FTY720 1 mg/kg daily i.p., day 7 after vaccination
Description: Investigation of Adjuvant-Involvement on Split LN Treatments and Effect of Inhibition of Lymphocyte Trafficking on Antigen Specificity. To determine the influence of adjuvant (PolyIC) delivery in the Split LN treatment group on antigen-specificity as quantified by SIINFEKL tetramer, mice were treated as described above for Split LN treatment with soluble OVA and either PolyIC MPs or with PBS. Antigen-specific CD8^+ T cells in the blood and LNs were quantified using SIINFEKL tetramer as described above. Antigen-specific T cells were reported as a percentage of Live, CD8^+ cells. In studies to determine the effect of lymphocyte trafficking on local and systemic antigen-specificity, FTY720 (Sigma) was administered daily at 1 mg/kg via intraperitoneal injection one day prior to vaccination until the end of the experiment (7 days after vaccination). Following vaccination, antigen-specific CD8^+ T cells in the blood and LNs were quantified using SIINFEKL tetramer as described above and reported as a percentage of Live, CD8^+ cells and an overall number of cells from an identical acquisition volume (80 μL).

Question: For CCCCCCCCc1ccc(CCC(N)(CO)CO)cc1 [FTY720], which “number of antigen-specific T cells in blood” value is on record?
Answer: greatly diminished

Question: What about the “percentage of antigen-specific T cells in blood” value of the same compound?
Answer: did not significantly change
